Source: patent US6608086B2, “Dihydropyridines and new uses thereof” (Synaptic Pharmaceutical Corporation, priority 1993, dated 2003)
Structures can show the parent of a compound that is named as a salt. Where two headings read alike, the source gives them in different places.

Columns and labels:
α2C receptor = biological target: T1, α2C receptor (Homo sapiens, UniProt P18825); assay: Competition binding, [3H]rauwolscine, human α2C receptor
T1 construct: host or cells: LM(tk-) cells, line L-α2C
T1 sequence (P18825 1-462): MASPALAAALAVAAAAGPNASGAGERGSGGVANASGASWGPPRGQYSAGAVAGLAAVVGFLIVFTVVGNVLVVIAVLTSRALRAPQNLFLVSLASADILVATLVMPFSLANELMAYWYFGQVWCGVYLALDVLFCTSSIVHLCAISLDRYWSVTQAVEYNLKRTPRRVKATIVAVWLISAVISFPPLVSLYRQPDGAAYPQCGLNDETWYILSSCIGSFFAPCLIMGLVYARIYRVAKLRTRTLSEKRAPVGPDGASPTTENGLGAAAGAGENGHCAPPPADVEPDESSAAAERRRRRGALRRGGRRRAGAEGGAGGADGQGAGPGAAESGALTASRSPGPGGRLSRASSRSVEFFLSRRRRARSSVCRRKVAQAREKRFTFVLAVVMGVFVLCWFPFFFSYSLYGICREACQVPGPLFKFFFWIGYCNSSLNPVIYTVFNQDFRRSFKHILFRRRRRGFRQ
Procedure, shortened: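 Lysates of LM(tk−) cells stably expressing human α2A, α2B or α2C receptors in 25 mM glycylglycine pH 7.6. Equilibrium competition against 0.5 nM [3H]rauwolscine, with 10 μM phentolamine defining nonspecific binding. Bound ligand separated by GF/B filtration.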

[1] = biological target: T2, α1C Human Adrenergic Receptor (Homo sapiens, UniProt P35348); assay: Radioligand binding, [3H]prazosin, cloned human α1C adrenergic receptor
T2 construct: The entire coding region of α1C (1401 bp); expressed in transfected cells
T2 sequence (P35348 1-466): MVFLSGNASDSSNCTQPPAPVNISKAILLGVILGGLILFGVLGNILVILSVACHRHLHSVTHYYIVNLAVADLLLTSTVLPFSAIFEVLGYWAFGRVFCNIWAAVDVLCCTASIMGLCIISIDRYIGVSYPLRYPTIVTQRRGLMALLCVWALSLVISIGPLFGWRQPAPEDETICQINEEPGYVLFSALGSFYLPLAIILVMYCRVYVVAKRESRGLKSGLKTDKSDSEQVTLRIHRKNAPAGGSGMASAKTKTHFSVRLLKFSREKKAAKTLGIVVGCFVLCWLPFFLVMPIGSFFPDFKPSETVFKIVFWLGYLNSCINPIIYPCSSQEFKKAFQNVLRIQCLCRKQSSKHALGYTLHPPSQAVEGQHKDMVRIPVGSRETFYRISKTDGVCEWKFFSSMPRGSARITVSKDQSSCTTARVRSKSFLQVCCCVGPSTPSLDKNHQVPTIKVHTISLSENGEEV
Procedure, shortened: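 LM(tk−) membranes (stable human α1C); [3H]prazosin 0.5 nM; 37° C., 20 min; Tris-HCl 50 mM/MgCl2 1 mM/ascorbate 0.1%, pH 7.5; NSB 10 μM phentolamine; GF/B filtration.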

[2] = biological target: T3, α1A Human Adrenergic Receptor (Homo sapiens, UniProt P25100); assay: Radioligand binding, [3H]prazosin, cloned human α1A adrenergic receptor
T3 construct: The entire coding region of α1A (1719 bp); expressed in transfected cells
T3 sequence (P25100 1-572): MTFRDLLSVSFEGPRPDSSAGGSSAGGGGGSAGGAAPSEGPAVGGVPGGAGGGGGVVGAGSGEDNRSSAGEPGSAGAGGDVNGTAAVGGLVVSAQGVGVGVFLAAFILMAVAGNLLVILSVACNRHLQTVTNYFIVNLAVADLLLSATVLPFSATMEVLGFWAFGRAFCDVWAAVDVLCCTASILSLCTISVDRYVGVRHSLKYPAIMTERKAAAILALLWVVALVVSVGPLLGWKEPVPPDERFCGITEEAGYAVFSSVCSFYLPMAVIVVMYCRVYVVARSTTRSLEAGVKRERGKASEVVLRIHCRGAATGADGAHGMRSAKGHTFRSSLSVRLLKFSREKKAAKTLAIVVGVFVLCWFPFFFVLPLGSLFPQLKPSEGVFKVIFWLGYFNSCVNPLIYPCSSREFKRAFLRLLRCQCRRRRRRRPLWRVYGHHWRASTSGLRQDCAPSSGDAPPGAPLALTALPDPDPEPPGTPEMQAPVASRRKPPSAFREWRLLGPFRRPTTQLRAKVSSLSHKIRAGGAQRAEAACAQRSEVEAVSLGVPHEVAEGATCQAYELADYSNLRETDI
Procedure, shortened: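 [3H]prazosin 0.5 nM, transfected LM(tk−) membranes, 37° C, 20 min. Buffer 50 mM Tris-HCl/1 mM MgCl2/0.1% ascorbate, pH 7.5. NSB: 10 μM phentolamine. Filtration harvest.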

[3] = [3H]rauwolscine, LM(tk-) cell line L-α2C, SEM and n in lines below
[4] = cloned human receptor in LM(tk-) cell membranes, SEM and n in lines below
[5] = [3H]prazosin, cloned human receptor in LM(tk-) cell membranes, SEM and n in lines below
[6] = cloned human receptor, LM(tk-) cell membranes, mean, read-out: PKi alpha-1 1c (converted)
[7] = [3H]rauwolscine, LM(tk-) cell line L-α2C, SEM and n in lines below, read-out: pKi alpha-2 2c (converted)
[8] = cloned human receptor in LM(tk-) cell membranes, SEM and n in lines below, read-out: pKi alpha-1 1c (converted)
[9] = [3H]prazosin, cloned human receptor in LM(tk-) cell membranes, SEM and n in lines below, read-out: pKi alpha-1 1a (converted)
[10] = [3H]rauwolscine, human receptor, LM(tk-) cell lysates, mean, read-out: PKi alpha-2 2c (converted)
[11] = cloned human α1C receptor, LM(tk-) cell membranes, read-out: PKi alpha-1 1c (converted)

## COC(=O)C1=C(C)NC2=C(C(=O)N(CCCN3CCC(c4ccccc4)(c4ccccc4)CC3)C2)C1c1ccc([N+](=O)[O-])cc1.Cl.O (stereo not drawn) [Example 91, 1,4,7,7-Tetrahydro-3-methoxycarbonyl-6-methyl-5-oxo-4-(4-nitrophenyl)-6-(3-(4,4-diphenylpiperidin-1-yl)) propylpyrrolo[3,4-b]pyridine, hydrochloride hydrate]
α2C receptor; [3H]rauwolscine, human α2C receptor, LM(tk−) cells
  pKi alpha-2 2c: 6.31
[1]; cloned human α1C receptor, LM(tk−) cell membranes
  pKi alpha-1 1c: 8.04
[2]; [3H]prazosin, cloned human α1A receptor, LM(tk−) cell membranes
  pKi alpha-1 1a: 6.29

## CCC1=C(C(=O)NCCCCN2CCC(c3ccccc3)CC2)C(c2ccc([N+](=O)[O-])cc2)C(C(N)=O)=C(C)N1.Cl.O (stereo not drawn) [Example 77, 5-Carboxamido-2-ethyl-1,4-dihydro-6-methyl-4-(4-nitro)phenyl-3-(N-(4-(4-phenylpiperidin-1-yl)butyl))carboxamidopyridine hydrochloride hydrate]
α2C receptor; [3]
  pKi alpha-2 2c: 7.42
[1]; [4]
  pKi alpha-1 1c: 8.30
[2]; [5]
  pKi alpha-1 1a: 6.83

## COc1cc2c(c(OC)c1)CCN(CCCNC(=O)C1=C(c3ccoc3)NC(C)=C(C(N)=O)C1c1ccc([N+](=O)[O-])cc1)C2.Cl.O (stereo not drawn) [Example 67]
α2C receptor; [3]
  pKi alpha-2 2c: 7.00
[1]; [4]
  pKi alpha-1 1c: 6.48
[2]; [5]
  pKi alpha-1 1a: 5.96

## CC1=C(C(N)=O)C(c2ccc([N+](=O)[O-])cc2)C(C(=O)NCCCN2CCC(C(=O)O)(c3ccccc3)CC2)=C(C)N1 (stereo not drawn) [Example 210, 5-Carboxamido-3-{N-[3-(4-carboxy-4-phenylpiperidin-1-yl)propyl]}carboxamido-1,4-dihydro-2,6-dimethyl-4-(4-nitrophenyl)pyridine]
α2C receptor; PKi alpha-2 2c
  Ki: 21900 nM
[1]; [6]
  Ki: 93.3 nM
[2]; PKi alpha-1 1a
  Ki: 72400 nM

## CCC1=C(C(=O)NC2CCN(Cc3ccccc3)CC2)C(c2ccc([N+](=O)[O-])cc2)C(C(=O)OC)=C(C)N1 (stereo not drawn) [Example 75, 2-Ethyl-1,4-dihydro-5-methoxycarbonyl-6-methyl-4-(4-nitro)phenyl-3-(N-(N-phenylmethyl)piperidin-4-yl)carboxamidopyridine hydrochloride]
α2C receptor; [7]
  Ki: 1230 nM
[1]; [8]
  Ki: 794 nM
[2]; [9]
  Ki: 4370 nM

## CCC1=C(C(=O)NCCCN2CCc3cc(OC)c(OC)cc3C2)C(c2ccc([N+](=O)[O-])cc2)C(C(N)=O)=C(C)N1.Cl.O (stereo not drawn) [Example 76, 5-Carboxamido-2-ethyl-1,4-dihydro-3-(N-(3-(1,2,3,4-tetrahydro-6,7-dimethoxyisoquinolin-2-yl)propyl)) carboxamido-6-methyl-4-(4-nitro)phenylpyridine hydrochloride hydrate]
α2C receptor; [3]
  pKi alpha-2 2c: 7.70
[1]; [4]
  pKi alpha-1 1c: 6.63
[2]; [5]
  pKi alpha-1 1a: 5.89

## CCC1=C(C(N)=O)C(c2ccc([N+](=O)[O-])cc2)C(C(=O)NCCCN2CCN(c3ccccc3)CC2)=C(CC)N1 (stereo not drawn) [Example 104, 5-Carboxamido-2,6-diethyl-1,4-dihydro-4-(4-nitrophenyl)-3-{N-[3-(4-phenylpiperazin-1-yl)propyl]}carboxamido-pyridine hydrochloride hydrate]
α2C receptor; [3H]rauwolscine, human α2C receptor, LM(tk−) cells, read-out: pKi alpha-2 2c (converted)
  Ki: 15.8 nM
[1]; cloned human α1C receptor, LM(tk−) cell membranes, read-out: pKi alpha-1 1c (converted)
  Ki: 3.24 nM
[2]; [3H]prazosin, cloned human α1A receptor, LM(tk−) cell membranes, read-out: pKi alpha-1 1a (converted)
  Ki: 132 nM

## CCC1=C(C(=O)NC)C(c2ccc([N+](=O)[O-])cc2)C(C(=O)NCCCN2CCC(c3ccccc3)(c3ccccc3)CC2)=C(CCCCOC)N1 (stereo not drawn) [Example 173, 6-Ethyl-1,4-dihydro-2-(4-methoxybutyl)-5-(N-methyl)carboxamido-4-(4-nitrophenyl)-3-{N-[3-(4,4-diphenylpiperidin-1-yl)propyl]}carboxamidopyridine]
α2C receptor; [10]
  Ki: 1480 nM
[1]; PKi alpha-1 1c, cloned human receptor, LM(tk-) cell membranes, mean
  Ki: 3.98 nM
[2]; PKi alpha-1 1a, [3H]prazosin, cloned human receptor, LM(tk-) cell membranes, mean
  Ki: 741 nM

## COC(=O)C1=C(C)NC(C)=C(C(=O)OCCCN2CCC(c3ccccc3)CC2)C1c1ccc([N+](=O)[O-])cc1 (stereo not drawn) [Example 48, 1,4-Dihydro-5-methazycarbonyl-2,6-dimethyl-4-(4-nitrophenyl)-3-[3-(4-phenylpiperidin-1-yl)propoxy]}carbonylpyridine hydrochloride hydrate]
α2C receptor; [7]
  Ki: 417 nM
[1]; [8]
  Ki: 0.525 nM
[2]; [9]
  Ki: 9.77 nM

## CCC1=C(C(=O)NN2CCOCC2)C(c2ccc([N+](=O)[O-])cc2)C(C(=O)NCCCN2CCC(c3ccccc3)(c3ccccc3)CC2)=C(COC)N1 (stereo not drawn) [Example 248, 6-Ethyl-1,4-dihydro-2-((methyl)oxy)methyl-5-N-(morpholin-4yl)carboxamido-4-(4-nitro)phenyl-3-(N-(3-(4,4-diphenylpiperidin-1-yl)propyl))carboxamidopyridine]
α2C receptor; [3H]rauwolscine, human α2C receptor, LM(tk-) cells, read-out: PKi alpha-2 2c (converted)
  Ki: 525 nM
[1]; [11]
  Ki: 174 nM
[2]; [3H]prazosin, cloned human α1A receptor, LM(tk-) cell membranes, read-out: PKi alpha-1 1a (converted)
  Ki: 2950 nM

## CCC1=C(C(N)=O)C(c2ccc([N+](=O)[O-])cc2)C(C(=O)NCCCN2CCC(C(=O)OC)(c3ccccc3)CC2)=C(CCCCN=[N+]=[N-])N1 (stereo not drawn) [Example 165, 2-(4-Azidobutyl)-3-{N-[3-(4-methoxycarbonyl-4-phenylpiperidin-1-yl)propyl]}carboxamido-5-carboxamido-6-ethyl-1,4-dihydro-4-(4-nitrophenyl)pyridine]
α2C receptor; [10]
  Ki: 1510 nM
[1]; [6]
  Ki: 0.501 nM
[2]; [3H]prazosin, cloned human receptor, LM(tk-) cell membranes, mean, read-out: PKi alpha-1 1a (converted)
  Ki: 1410 nM

## CCOC(=O)C1(c2ccccc2)CCN(CCCNC(=O)C2=C(COC)NC(CC)=C(C(=O)O)C2c2ccc([N+](=O)[O-])cc2)CC1 (stereo not drawn) [Example 240, 3-(N-3-(4-Ethoxycarbonyl-4-phenylpiperidin-1-yl)propyl)carboxamido-6-ethyl-1,4-dihydro-2-(methyloxy)methyl-4-(4-nitro)phenylpyridine-5-carboxylic Acid]
α2C receptor; PKi alpha-2 2c
  Ki: 11700 nM
[1]; [11]
  Ki: 26.9 nM
[2]; PKi alpha-1 1a
  Ki: 10000 nM

## COC(=O)C1=C(C)NC(c2ccccc2)=C(C(=O)NCCCN2CCC(c3ccccc3)CC2)C1c1ccc([N+](=O)[O-])cc1.Cl (stereo not drawn) [Example 79, 1,4-Dihydro-5-methoxycarbonyl-6-methyl-4-(4-nitro)phenyl-2-phenyl-3-(N-(3-(4-phenylpiperidin-1-yl)propyl)) carboxamidopyridine hydrochloride]
α2C receptor; [3]
  pKi alpha-2 2c: 7.21
[1]; [4]
  pKi alpha-1 1c: 7.76
[2]; [5]
  pKi alpha-1 1a: 6.99
